{
  "source": "patent US20150011492A1",
  "about": "“ANTI-RESTENOSIS COMPOSITIONS AND METHODS” (WISCONSIN ALUMNI RESEARCH FOUNDATION, priority 2013, published 2015)",
  "key": {"[1]": {"tested_on": "balloon-injured rat carotid arteries", "assay": "Rat carotid balloon angioplasty model, perivascular drug delivery in pluronic gel", "format": "in vivo, Male Sprague-Dawley rats"}, "[2]": {"tested_on": "HuAoSMCs", "assay": "Dose response proliferation assay, HuAoSMCs (96-well plate)", "format": "cell-based, human", "experimental": "FIGS. 5A-B present comparative dose responses of HuAoSMCs and HuAoECs for idarubicin (A) and resveratol (B).\nCryo-protected frozen HuAoSMCs and HuAoECs (Lonza, passage 3) were thawed and cultured in their respective media that are optimized for cell growth by the manufacturer. HuAoSMCs (“SMCs”) were grown in the SmGM-2 medium containing 5% FBS, and HuAoECs (“ECs”) in the EGM-2 medium containing 2% FBS in a humidified incubator at 37° C. with 5% CO2."}, "[3]": {"tested_on": "balloon-injured rat carotid arteries", "assay": "Rat carotid balloon angioplasty model, perivascular drug delivery in pluronic gel", "format": "in vivo, Male Sprague-Dawley rats", "experimental": "Balloon injury of the left common carotid artery was performed in Male Sprague-Dawley rats (300-350 g) according to the method described previously (Kundi et al., Cardiovasc Res. 84(2):326-35 (2009). Briefly, after induction of anesthesia with isoflurane, a 2F balloon catheter was inserted through the left external carotid artery into the common carotid and insufflated three times at 2 atm of pressure. The external carotid artery was then ligated, and blood flow was resumed through the common and internal carotid arteries. For perivascular drug delivery, resveratrol (500 μg) or halofuginone (30 μg) or DMSO dissolved in 200 μL of 25% F127 pluronic gel (Sigma-Aldrich) in PBS was evenly applied, immediately after reestablishment of flow, around the injured segment of the carotid artery (5 animals in each group). The pluronic gel is a biodegradable polymer that is soluble in water at 4° C. but becomes a gel when in contact with tissues at 37° C. (Ji et al., Circ. Res. 100:1579-88 (2007)). Rats were euthanized 14 days after injury, and the common carotid arteries were collected and fixed in 4% paraformaldehyde overnight for embedding in paraffin.\nFor morphometric analysis of intimal hyperplasia, ten evenly spaced sections through each injured carotid artery were stained using routine hematoxylin and eosin (H&E) and images were collected with light microscopy. Intimal and medial areas and circumference were determined by measuring the internal elastic lamina (IEE) and external elastic lamina (EEL) for each section using the ImageJ software (National Institutes of Health). Kundi et al., Cardiovasc. Res. 84:326-35 (2009); Kingston et al., Circulation 108:2819-25 (2003). The difference in intimal hyperplasia between the compound treatment group and the control group was analyzed with the Student t-test (P<0.05).\nTo mark endothelial cells, immunohistochemistry using an anti-CD31 antibody was performed on rat carotid sections based on our published methods. Suwanabol et al., Am J Physiol Heart Circ Physiol. 302:H2211-19 (2012); Kundi et al., Cardiovasc. Res. 84:326-35 (2009); Si et al., Arterioscler. Thromb. Vasc. Biol. 32:943-54 (2012). Briefly, the carotid sections were incubated with the anti-CD31 antibody (Santa Cruz Biotechnology) overnight at 4° C., followed by rhodamine-conjugated secondary antibody (DAKO) for 60 minutes at room temperature. Antibody controls included species-matched IgG. Images were taken with a fluorescence microscope.\nBalloon angioplasty was performed in the left common carotid artery of male Sprague-Dawley rats. Immediately after resuming the blood flow, idarubicin (110 μg) or DMSO control dissolved in 300 μL of 25% F127 pluronic gel was applied around the injured artery. At 14 days after injury, arteries were collected and cross-sections were prepared and H&E stained. Intimal and medial areas, and circumference were determined by measuring the internal elastic lamina (IEE) and external elastic lamina (EEL) for each section using the ImageJ software. The difference in intimal hyperplasia (ratio of intima to media) between the idarubicin treatment group and the control group was analyzed with the Student t-test (P<0.05). Immunostaining of CD31, an endothelial cell marker, was performed on the sections to assess re-endothelialization.\nUsing the carotid artery sections collected on day 14 following angioplasty, we performed immunostaining for CD31 (FIGS. 10A-C), a commonly used marker for assessment of the endothelium, in a rat carotid injury model at 14 days. Briefly, a goat anti-CD31 primary antibody (R&D Sytems, 1:150) was incubated with the sections for 1 hour followed by an incubation with a biotinylated rabbit-anti-goat secondary antibody for 30 minutes. Immunostaining of CD31 was then visualized by using streptavidin-HRP and DAB.", "remark": "listed apart in the source"}, "[4]": {"tested_on": "primary human aortic endothelial cells (HuAoECs)", "assay": "Counter-screen / dose response proliferation assay, HuAoECs"}, "[5]": {"tested_on": "human SMCs", "assay": "CellTiter-Glo luminescent cell viability assay, SMCs", "format": "cell-based", "details": "200 nM", "experimental": "Freshly collected HuAoSMCs (passage 5) were counted ([…]) by Cellometer AutoT4 (Nexelon Bioscience), and dispensed using Microflo Select (BioTek) to a final density of 2700 cells/[…]/well in the SmGM-2 medium in a 96-well plate. After a 24 hour incubation to allow cell attachment, […] of DMSO (vehicle) or […] of resveratrol (a known SMC growth inhibitor) stock in DMSO was robotically transferred using Biomek FX (Beckman) from a resveratrol stock plate into cell culture (final […] resveratrol). DMSO and resveratrol were added into alternate columns of wells (8 wells per column). Cell growth/proliferation was monitored by reading fluorescence from the AlamarBlue® cell viability reagent (Invitrogen). See Antczak et al., J. Biomol. […] After incubation with resveratrol for 72 hours, AlamarBlue reagent was added using Matrix Hydra (Thermo-Fisher) and incubated with cells for another 24 hours, and fluorescence was then determined using a Safir2 plate reader (Tecan, excitation/fluorescence: 530 nm/590 nm, bandwidth: 15 nm). The data from 40 wells of vehicle and 40 wells of resveratrol treatments were analyzed for assessment of well-well consistency in the assay. […] It was determined that reading Alamar Blue fluorescence 24 hours after incubation reduced variance compared to reading after shorter incubation (e.g., 4 hours). […]"}, "[6]": {"tested_on": "human ECs", "assay": "CellTiter-Glo luminescent cell viability assay, ECs", "format": "cell-based", "details": "200 nM", "source_text": "For human SMCs, cell densities ranging from about 1,000 cells per well to about 5,000 cells per well were aliquoted into 96-well plates and cultured in the SmGM-2 medium (Lonza CC-3182) with 5% serum.\nThis robust well-to-well consistency achieved by our experimental system is better reflected by a Z′ value of 0.63. […] See, e.g., Tomasini-Johansson et al., J. Intl. Soc. Matrix Biol. (2012); Zhang et al., J. Biomol. Screening 4:67-73 (1999); Patel et al., PloS One 7:e36594 (2012). In parallel experiments, a CellTiter-Glo® luminescent cell viability assay (Cat. #7570, Promega), which quantifies ATP levels in cell lysates, was evaluated as an additional and more sensitive orthologous assay for cell number. Sachsenmeier et al., PLoS One 17:993-8 (2012). Using the CellTiter-Glo® assay, Rapamycin which is used in drug-eluting stents at 200 nM produced >50% inhibition of both human SMCs and ECs with Z′ values of 0.56 to 0.75 respectively (FIG. 2). In addition, CellTiter-Glo® assays using resveratrol for both SMCs and ECs also produced high Z′ values (>0.7) (data not shown). Curve fitting was performed with the Prism software (GraphPad)."}, "[7]": {"tested_on": "primary human aortic smooth muscle cells (HuAoSMCs)", "assay": "AlamarBlue cell viability assay of HuAoSMC proliferation (automated HTS)", "format": "cell-based", "source_text": "Alamar Blue was purchased from Invitrogen (Carlsbad, Calif.). Cell Titer Glo was from Promega (Madison, Wis.). Primary human aortic smooth muscle cells (HuAoSMCs) and primary human aortic endothelial cells (HuAoECs) at passage 3 were purchased from Lonza; their respective optimal culture media (SmGM-2 and EGM-2) were from the same commercial source. Cells were used at passage 5 after expansion. Trypsin/EDTA solution was from Clonetics (Walkersville, Md.); and DPBS was from Gibco (Invitrogen, Carlsbad, Calif.). Microtiter tissue 96-well culture plates with transparent flat-bottoms and black-walled sides were from Costar (Corning, N.Y.). Resveratrol and idarubicin were products of Sigma-Aldrich (St. Louis, Mo.). […]\nFreshly collected HuAoSMCs (passage 5) were counted ([…]) by Cellometer AutoT4 (Nexelon Bioscience), and dispensed using Microflo Select (BioTek) to a final density of 2700 cells/[…]/well in the SmGM-2 medium in a 96-well plate. […] Cell growth/proliferation was monitored by reading fluorescence from the AlamarBlue® cell viability reagent (Invitrogen). […] After incubation with resveratrol for 72 hours, AlamarBlue reagent was added using Matrix Hydra (Thermo-Fisher) and incubated with cells for another 24 hours, and fluorescence was then determined using a Safir2 plate reader (Tecan, excitation/fluorescence: 530 nm/590 nm, bandwidth: 15 nm). […]"}, "[8]": {"details": "medium dose 0.5 mg/mL in pluronic gel"}, "[9]": {"details": "relative to controls not contacted to idarubicin formulation"}, "[10]": {"details": "Example 5, local perivascular application, day 14 following angioplasty, 5 rats"}, "[11]": {"details": "idarubicin applied locally around injured artery, day 14"}, "[12]": {"details": "halofuginone 30 μg in 200 μL pluronic gel, 14 days"}},
  "note": "Entries after “also recorded” stand apart in the source; their conditions may differ.",
  "data": [
    {"molecule": "CC(=O)[C@]1(O)Cc2c(O)c3c(c(O)c2[C@@H](O[C@H]2C[C@H](N)[C@H](O)[C@H](C)O2)C1)C(=O)c1ccccc1C3=O", "note": "[idarubicin, (7S,9S)-9-Acetyl-7-[(3-amino-2,3,6-trideoxy-α-L-lyxo-hexapyranosyl)oxy]-7,8,9,10-tetrahydro-6,9,11-trihydroxy-5,12-naphtacenedione]", "values": [
      {"measurement": "cytotoxicity in surrounding tissues", "setting": "[1]; highest dose 1 mg/mL in pluronic gel", "result": "slight cytotoxicity"},
      {"measurement": "cytotoxicity in surrounding tissues", "setting": "[1]; lowest dose 0.2 mg/mL in pluronic gel", "result": "without showing cytotoxicity"},
      {"measurement": "inhibition of intimal hyperplasia", "setting": "[1]; lowest dose 0.2 mg/mL in pluronic gel (data not shown)", "result": "> 70", "unit": "%"},
      {"measurement": "cytotoxicity in surrounding tissues", "setting": "[1]; [8]", "result": "without showing cytotoxicity"},
      {"measurement": "inhibition of intimal hyperplasia", "setting": "[1]; [8]", "result": "> 70", "unit": "%"},
      {"measurement": "SMC versus EC proliferation, dose response (in words)", "setting": "[2]; approximately 50 nM to 1000 nM", "result": "impedes SMC proliferation to a significantly greater extent than ECs; also recorded: differentially inhibited SMC proliferation with a lesser effect on ECs"},
      {"measurement": "inhibition of smooth muscle cell proliferation", "setting": "[2]; [9]", "result": "up to 80%"},
      {"measurement": "increase of lumen size", "setting": "[3]; [10]", "result": 45, "unit": "%"},
      {"measurement": "reduction of intimal hyperplasia", "setting": "[3]; [10]", "result": 80, "unit": "%"},
      {"measurement": "effect on intimal hyperplasia (intima/media), in words", "setting": "[3]; [11]", "result": "effectively reduced; also recorded: inhibitory effect; also recorded: inhibits intimal hyperplasia in a dose-dependent manner"},
      {"measurement": "effect on re-endothelialization (CD31 staining), in words", "setting": "[3]; [11]", "result": "not affected; also recorded: absence of idarubicin's effect; also recorded: preserves and promotes re-endothelialization; also recorded: no substantial impairment; also recorded: no significant effect"},
      {"measurement": "reduction of intimal hyperplasia", "setting": "[3]; local application, dose not stated at the place (Example 3)", "result": 70, "unit": "%"},
      {"measurement": "SMC versus EC preference in counter-screen of EC proliferation, in words", "setting": "[4]; counter-screen", "result": "preferentially inhibits SMCs over ECs"},
      {"measurement": "inhibition of endothelial cell proliferation", "setting": "[4]; [9]", "result": "less than 40%"}
    ]},
    {"molecule": "CO[C@H]1C[C@@H]2CC[C@@H](C)[C@@](O)(O2)C(=O)C(=O)N2CCCC[C@H]2C(=O)O[C@H]([C@H](C)C[C@@H]2CC[C@@H](O)[C@H](OC)C2)CC(=O)[C@H](C)/C=C(\\C)[C@@H](O)[C@@H](OC)C(=O)[C@H](C)C[C@H](C)/C=C/C=C/C=C/1C", "note": "[Rapamycin]", "values": [
      {"measurement": "inhibition at 0.2 µM", "setting": "[5]", "result": "> 50", "unit": "%"},
      {"measurement": "inhibition at 0.2 µM", "setting": "[6]", "result": "> 50", "unit": "%"}
    ]},
    {"molecule": "Oc1ccc(C=Cc2cc(O)cc(O)c2)cc1", "note": "[resveratrol]", "values": [
      {"measurement": "inhibition of the intima/media ratio", "setting": "[3]; resveratrol 500 μg in 200 μL pluronic gel, perivascular, 14 days after injury", "result": 84, "unit": "%"},
      {"measurement": "SMC growth in cell assays, in words", "setting": "[7]", "result": "inhibit SMC growth"}
    ]},
    {"molecule": "O=C(CC1NCCCC1O)Cn1cnc2cc(Br)c(Cl)cc2c1=O", "note": "(stereo not shown) [halofuginone]", "values": [
      {"measurement": "effect on intimal hyperplasia, in words", "setting": "[3]; [12]", "result": "inhibits intimal hyperplasia"},
      {"measurement": "effect on re-endothelialization (CD31 staining), in words", "setting": "[3]; [12]", "result": "not re-endothelialization; also recorded: not affected"},
      {"measurement": "reduction of intimal hyperplasia (intima/media ratio)", "setting": "[3]; halofuginone 30 μg in 200 μL pluronic gel, periadventitial, 14 days after injury", "result": 74, "unit": "%"},
      {"measurement": "SMC growth in cell assays, in words", "setting": "[7]", "result": "inhibit SMC growth"}
    ]}
  ]
}
